Experimental data from patent publication US20260042731A1, “(2,4-DICHLOROPHENOXY)ACETIC ACID ANALOGS” (CORTEVA AGRISCIENCE LLC, priority 2022, published 2026).
Values joined by “and” are separate entries in the source; they are usually repeats but may differ in a detail not shown here. Identical values can stand only once. Like-named read-outs stand apart in the source and are kept apart here.

Assays:
[1] = system: Amaranthus rudis (AMATA), tall water hemp; assay: Postemergence herbicide evaluation, growth of Amaranthus rudis (AMATA); format: in vivo; conditions: Amaranthus tuberculatus, post-emergence
[2] = system: Ambrosia artemisiifolia (AMBEL), common ragweed; assay: Postemergence herbicide evaluation, growth of Ambrosia artemisiifolia (AMBEL); format: in vivo; conditions: Ambrosia artemisiifolia, post-emergence
[3] = system: Abutilon theophrasti (ABUTH), velvetleaf; assay: Postemergence herbicide evaluation, growth of Abutilon theophrasti (ABUTH); format: in vivo; conditions: Abutilon theophrasti, post-emergence
[4] = system: Chenopodium album (CHEAL), common lambsquarters; assay: Postemergence herbicide evaluation, growth of Chenopodium album (CHEAL); format: in vivo; conditions: Chenopodium album, post-emergence
[5] = system: glyphosate resistant Conyza canadensis (L.) (ERICA), horseweed; assay: Postemergence herbicide evaluation, growth of Conyza canadensis (ERICA); format: in vivo; conditions: Erigeron canadensis, post-emergence; for pest or weed control at 280 g/ha: 280 g ae/ha; for pest or weed control at 560 g/ha: 560 g ae/ha
[6] = Volatility of compounds measured by thermogravimetric analysis (TGA); format: physicochemical
[7] = system: weeds ABUTH, AMATA, AMBEL, CHEAL, ERICA; assay: Postemergence herbicide evaluation, overall average % weed control (ABUTH, AMATA, AMBEL, CHEAL, ERICA); format: in vivo; conditions: post-emergence, 168 h, 7 DAA, read-out: Overall Ave % Weed Control
[8] = system: weeds (ABUTH, AMATA, AMBEL, CHEAL, ERICA); assay: Postemergence herbicide evaluation, overall average % weed control across ABUTH, AMATA, AMBEL, CHEAL, ERICA; format: in vivo; conditions: post-emergence, average over the five weeds, read-out: Overall Ave % Weed Control; for pest or weed control at 280 g/ha: 280 g ae/ha; for pest or weed control at 560 g/ha: 560 g ae/ha
[9] = system: weeds ABUTH, AMATA, AMBEL, CHEAL, ERICA; assay: Postemergence herbicide evaluation, overall average % weed control across ABUTH, AMATA, AMBEL, CHEAL and ERICA; format: in vivo; conditions: post-emergence, read-out: Overall Ave % Weed Control
[10] = 168 h, 7 DAA, read-out: Ave. ERICA, percent reduction in plant size relative to the untreated control
[11] = 336 h, 14 DAA, percent reduction in plant size relative to untreated control, read-out: Ave. ERICA
[12] = 504 h, 21 DAA, percent reduction in plant size relative to untreated control, read-out: Ave. ERICA

N/C(=N\OC(=O)COc1ccc(Cl)cc1Cl)c1ccco1 [Compound A5]
pest or weed control at 280 g/ha ([1]; 168 h, 280 g ae/ha, 7 DAA, read-out: Ave. AMATA, percent reduction in plant size relative to the untreated control): 70%
pest or weed control at 560 g/ha ([1]; 168 h, 560 g ae/ha, 7 DAA, read-out: Ave. AMATA, percent reduction in plant size relative to the untreated control): 65%
pest or weed control at 280 g/ha ([1]; 336 h, 280 g ae/ha, 14 DAA, percent reduction in plant size relative to untreated control, read-out: Ave. AMATA): 73%
pest or weed control at 560 g/ha ([1]; 336 h, 560 g ae/ha, 14 DAA, percent reduction in plant size relative to untreated control, read-out: Ave. AMATA): 68%
pest or weed control at 280 g/ha ([1]; 504 h, 280 g ae/ha, 21 DAA, percent reduction in plant size relative to untreated control, read-out: Ave. AMATA): 73%
pest or weed control at 560 g/ha ([1]; 504 h, 560 g ae/ha, 21 DAA, percent reduction in plant size relative to untreated control, read-out: Ave. AMATA): 70%
pest or weed control at 280 g/ha ([2]; 168 h, 280 g ae/ha, 7 DAA, read-out: AVE. AMBEL, percent reduction in plant size relative to the untreated control): 60%
pest or weed control at 560 g/ha ([2]; 168 h, 560 g ae/ha, 7 DAA, read-out: AVE. AMBEL, percent reduction in plant size relative to the untreated control): 60%
pest or weed control at 280 g/ha ([2]; 336 h, 280 g ae/ha, 14 DAA, percent reduction in plant size relative to untreated control, read-out: AVE. AMBEL): 78%
pest or weed control at 560 g/ha ([2]; 336 h, 560 g ae/ha, 14 DAA, percent reduction in plant size relative to untreated control, read-out: AVE. AMBEL): 85%
pest or weed control at 280 g/ha ([2]; 504 h, 280 g ae/ha, 21 DAA, percent reduction in plant size relative to untreated control, read-out: AVE. AMBEL): 78%
pest or weed control at 560 g/ha ([2]; 504 h, 560 g ae/ha, 21 DAA, percent reduction in plant size relative to untreated control, read-out: AVE. AMBEL): 85%
pest or weed control at 280 g/ha ([3]; 168 h, 280 g ae/ha, 7 DAA, read-out: AVE. ABUTH, percent reduction in plant size relative to the untreated control): 38%
pest or weed control at 560 g/ha ([3]; 168 h, 560 g ae/ha, 7 DAA, read-out: AVE. ABUTH, percent reduction in plant size relative to the untreated control): 43%
pest or weed control at 280 g/ha ([3]; 336 h, 280 g ae/ha, 14 DAA, percent reduction in plant size relative to untreated control, read-out: AVE. ABUTH): 40%
pest or weed control at 560 g/ha ([3]; 336 h, 560 g ae/ha, 14 DAA, percent reduction in plant size relative to untreated control, read-out: AVE. ABUTH): 53%
pest or weed control at 280 g/ha ([3]; 504 h, 280 g ae/ha, 21 DAA, percent reduction in plant size relative to untreated control, read-out: AVE. ABUTH): 30%
pest or weed control at 560 g/ha ([3]; 504 h, 560 g ae/ha, 21 DAA, percent reduction in plant size relative to untreated control, read-out: AVE. ABUTH): 50%
pest or weed control at 280 g/ha ([4]; 168 h, 280 g ae/ha, 7 DAA, read-out: Ave. CHEAL, percent reduction in plant size relative to the untreated control): 60%
pest or weed control at 560 g/ha ([4]; 168 h, 560 g ae/ha, 7 DAA, read-out: Ave. CHEAL, percent reduction in plant size relative to the untreated control): 63%
pest or weed control at 280 g/ha ([4]; 336 h, 280 g ae/ha, 14 DAA, percent reduction in plant size relative to untreated control, read-out: Ave. CHEAL): 68%
pest or weed control at 560 g/ha ([4]; 336 h, 560 g ae/ha, 14 DAA, percent reduction in plant size relative to untreated control, read-out: Ave. CHEAL): 63%
pest or weed control at 280 g/ha ([4]; 504 h, 280 g ae/ha, 21 DAA, percent reduction in plant size relative to untreated control, read-out: Ave. CHEAL): 68%
pest or weed control at 560 g/ha ([4]; 504 h, 560 g ae/ha, 21 DAA, percent reduction in plant size relative to untreated control, read-out: Ave. CHEAL): 65%
pest or weed control at 280 g/ha [5, 10]: 70%
pest or weed control at 560 g/ha [5, 10]: 73%
pest or weed control at 280 g/ha [5, 11]: 83%
pest or weed control at 560 g/ha [5, 11]: 85%
pest or weed control at 280 g/ha [5, 12]: 88%
pest or weed control at 560 g/ha [5, 12]: 88%
TGA Data (rate of weight loss, volatility) [6]: 1.2 µg/min
pest or weed control at 280 g/ha ([7]; 280 g ae/ha): 60%
pest or weed control at 560 g/ha ([7]; 560 g ae/ha): 61%
pest or weed control at 280 g/ha ([8]; 336 h, 14 DAA): 68%
pest or weed control at 560 g/ha ([8]; 336 h, 14 DAA): 71%
pest or weed control at 280 g/ha ([8]; 504 h, 21 DAA): 67%
pest or weed control at 560 g/ha ([8]; 504 h, 21 DAA): 72%

O=C(COc1ccc(Cl)cc1Cl)OCCCCCOC(=O)COc1ccc(Cl)cc1Cl [Compound B8]
pest or weed control at 280 g/ha ([1]; 168 h, read-out: Ave. AMATA): 84%
pest or weed control at 280 g/ha ([1]; 336 h, read-out: Ave. AMATA): 92.5%
pest or weed control at 560 g/ha ([1]; 336 h, read-out: Ave. AMATA): 96.5%
pest or weed control at 280 g/ha ([1]; 504 h, read-out: Ave. AMATA): 92.5%
pest or weed control at 560 g/ha ([1]; 504 h, read-out: Ave. AMATA): 100%
pest or weed control at 560 g/ha ([2]; 168 h, read-out: AVE. AMBEL): 72.5%
pest or weed control at 280 g/ha ([2]; 336 h, read-out: AVE. AMBEL): 90%
pest or weed control at 280 g/ha ([2]; 504 h, read-out: AVE. AMBEL): 100%
pest or weed control at 560 g/ha ([2]; 504 h, read-out: AVE. AMBEL): 100%
pest or weed control at 280 g/ha ([3]; 504 h, read-out: AVE. ABUTH): 97%
pest or weed control at 560 g/ha ([3]; 504 h, read-out: AVE. ABUTH): 99%
pest or weed control at 280 g/ha ([4]; 168 h, read-out: Ave. CHEAL): 80%
pest or weed control at 560 g/ha ([4]; 168 h, read-out: Ave. CHEAL): 82.5%
pest or weed control at 280 g/ha ([4]; 336 h, read-out: Ave. CHEAL): 92.5%
pest or weed control at 560 g/ha ([4]; 336 h, read-out: Ave. CHEAL): 97%
pest or weed control at 280 g/ha ([4]; 504 h, read-out: Ave. CHEAL): 96%
pest or weed control at 560 g/ha ([4]; 504 h, read-out: Ave. CHEAL): 99.5%
TGA Data (rate of weight loss, volatility) [6]: 0.3521 µg/min and 0.38 µg/min
pest or weed control at 280 g/ha ([9]; 168 h): 74.3%
pest or weed control at 560 g/ha ([9]; 168 h): 79.8%
pest or weed control at 280 g/ha ([9]; 336 h): 90.4%
pest or weed control at 560 g/ha ([9]; 336 h): 95.9%
pest or weed control at 280 g/ha ([9]; 504 h): 96.8%
pest or weed control at 560 g/ha ([9]; 504 h): 99.7%
